The values that follow come from patent publication US11285135B2 (AMGEN INC., priority 2016, dated 2022).

Broadly, the IC50 is the concentration that inhibits the measured activity by half.

Where two headings read alike, the source gives them in different places.

Test [1] has as its target GDP-bound protein (aa 1-169), containing both G12C and C118A amino acid substitutions (Homo sapiens, UniProt P01116, C118A/G12C). The test can be described thus: Coupled Nucleotide Exchange Assay (SOS-mediated nucleotide exchange, AlphaScreen). Type of test: biochemical. The following applies: 2 hours compound pre-incubation. The gist of the method:
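AlphaScreen signal after SOS (aa 564-1049)/GTP-driven exchange (1 h) on GDP-loaded His-[…] G12C/C118A (aa 1-169), following a 2 h compound pre-incubation in HEPES pH 7.4 buffer with 10 mM MgCl2 and 0.01% Triton X-100. IC50s fitted by 4-parameter logistic model.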
In general terms: Bead proximity is the source of the signal in Alpha formats.

Test [2] relates to Phosphorylation of ERK½ in MIA PaCa-2 cells. The test can be described thus: Phospho-ERK½ MSD Assay in MIA PaCa-2 cells. Type of test: cell-based. The following applies: 4 hours compound treatment, 10 ng/mL EGF for 10 min, read-out: p-ERK IC50 (MIA PaCa-2). Put shortly: (§1)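 MIA PaCa-2 or A549 cells (25,000/well, RPMI with 10% FBS) exposed to compound titration for 4 h at 37 °C, then stimulated with 10 ng/mL EGF for 10 min and lysed in RIPA. Phospho-ERK1/2 quantified by MSD whole-cell lysate immunoassay; IC50 from 4-parameter logistic fit.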

The subject of test [3] is Phosphorylation of ERK½ in A549 cells. The test can be described thus: Phospho-ERK½ MSD Assay in A549 cells. To be noted: 4 hours compound treatment, 10 ng/mL EGF for 10 min, read-out: p-ERK IC50 (A549). It counts as cell-based. The gist of the method:
as §1

Setting [4] is: Homo sapiens, MIA PaCa-2, MIA PaCa-2 cells.

GDP-bound protein (aa 1-169), containing both G12C and C118A amino acid substitutions, sequence (P01116 1-169 isoform P01116-2 G12C/C118A): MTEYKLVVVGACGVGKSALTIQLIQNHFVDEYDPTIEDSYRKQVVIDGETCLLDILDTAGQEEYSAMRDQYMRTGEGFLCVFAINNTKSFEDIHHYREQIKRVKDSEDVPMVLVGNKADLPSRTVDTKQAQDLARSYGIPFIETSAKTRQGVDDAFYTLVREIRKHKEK

As to `C=CC(=O)N1CCN(c2nc(=O)n(-c3ccccc3C(C)C)c3cc(-c4ccccc4Cl)c(Cl)cc23)[C@@H](C)C1` [Example 9-11, 6-chloro-7-(2-chlorophenyl)-4-((2S)-2-methyl-4-(2-propenoyl)-1-piperazinyl)-1-(2-(2-propanyl)phenyl)-2(1H)-quinazolinone], the “Coupled exchange IC50” value in test [1] stood at 0.093 µM. The IC50 in test [2] (setting [4]) came to 0.147 µM; in test [3] (Homo sapiens, A549, A549 cells), 64 µM.
With `C=CC(=O)N1CCN(c2snc3c(F)c(-c4cc(O)cc5ccccc45)c(Cl)cc23)C(CO)C1` (racemic) [Example 1-18, 1-(4-(5-chloro-7-fluoro-6-(3-hydroxy-1-naphthalenyl)-2,1-benzothiazol-3-yl)-3-(hydroxymethyl)-1-piperazinyl)-2-propen-1-one], the “Coupled exchange IC50” value in test [1] was 0.370 µM. In addition, the IC50 in test [2] (setting [4]) is 0.559 µM; in test [3] (Homo sapiens, A549, A549 cells), greater than 33.3 µM.
For the compound `C=CC(=O)N1CCN(c2snc3c(F)c(-c4cc(O)cc5ccccc45)c(Cl)cc23)CC1` (single isomer, unassigned) [Example 3-1-1, 1-(4-(5-chloro-7-fluoro-6-(3-hydroxy-1-naphthalenyl)-2,1-benzothiazol-3-yl)-1-piperazinyl)-2-propen-1-one], the “Coupled exchange IC50” value in test [1] was 3.00 µM. For the same compound, the IC50 in test [2] (MIA PaCa-2 cells) and in test [3] (A549 cells) was greater than 100 µM each time.
Turning to `C=CC(=O)N1CCN(c2nnc(-c3ccccc3C(C)C)c3cc(-c4c(O)cccc4F)c(Cl)cc23)CC1` [Example 10-4, 1-(4-(7-chloro-6-(2-fluoro-6-hydroxyphenyl)-4-(2-(2-propanyl)phenyl)-1-phthalazinyl)-1-piperazinyl)-2-propen-1-one], the “Coupled exchange IC50” value in test [1] amounted to 0.235 µM. In addition, the IC50 in test [2] (setting [4]) was 3.47 µM; in test [3] (Homo sapiens, A549, A549 cells), greater than 100 µM.
`C=CC(=O)N1CCN(c2snc3c(F)c(-c4cc(O)cc(Cl)c4Cl)c(Cl)cc23)CC1` [Example 3-22, 1-(4-(5-chloro-6-(2,3-dichloro-5-hydroxyphenyl)-7-fluoro-2,1-benzothiazol-3-yl)-1-piperazinyl)-2-propen-1-one]: the “Coupled exchange IC50” value in test [1] is 0.249 µM. Also, the half-maximal inhibitory concentration (IC50) in test [2] (setting [4]) was 1.12 µM; in test [3] (Homo sapiens, A549, A549 cells) it was greater than 33.3 µM.
As to `C=CC(=O)N1CCN(c2nnc(-c3ccccc3CC)c3cc(-c4c(O)cccc4F)c(Cl)cc23)CC1` [Example 10-5, 1-(4-(7-chloro-4-(2-ethylphenyl)-6-(2-fluoro-6-hydroxyphenyl)-1-phthalazinyl)-1-piperazinyl)-2-propen-1-one], the “Coupled exchange IC50” value in test [1] amounted to 0.297 µM. Further, the IC50 in test [2] (setting [4]) was 3.41 µM; in test [3] (Homo sapiens, A549, A549 cells), greater than 100 µM.
Turning to `C=CC(=O)N1CCN(c2nnc(-c3c(C)ccc4[nH]ncc34)c3cc(-c4c(O)cccc4F)c(Cl)cc23)CC1` [Example 10-12, 1-(4-(7-chloro-6-(2-fluoro-6-hydroxyphenyl)-4-(5-methyl-1H-indazol-4-yl)-1-phthalazinyl)-1-piperazinyl)-2-propen-1-one], the “Coupled exchange IC50” value in test [1] is 0.912 µM. The IC50 is 72.6 µM in test [2] (setting [4]) and greater than 100 µM in test [3] (Homo sapiens, A549, A549 cells).
For `C=CC(=O)N1CCN(c2snc3c(F)c(-c4c(C)ccc5[nH]ncc45)c(Cl)cc23)[C@H](C(F)F)C1` (racemic) [Example 2-8, 1-(4-(5-chloro-7-fluoro-6-(5-methyl-1H-indazol-4-yl)-2,1-benzothiazol-3-yl)-3-(difluoromethyl)-1-piperazinyl)-2-propen-1-one], in that order: 0.361 µM, 0.258 µM and greater than 100 µM.
As to `C=CC(=O)N1CCN(c2nc(=O)n([C@H]3CCCCC3(C)C)c3nc(-c4c(O)cccc4F)c(Cl)cc23)CC1` (racemic) [Example 9-14, 6-chloro-1-((1R)-2,2-dimethylcyclohexyl)-7-(2-fluoro-6-hydroxyphenyl)-4-(4-(2-propenoyl)-1-piperazinyl)pyrido[2,3-d]pyrimidin-2(1H)-one|6-chloro-1-((1S)-2,2-dimethylcyclohexyl)-7-(2-fluoro-6-hydroxyphenyl)-4-(4-(2-propenoyl)-1-piperazinyl)pyrido[2,3-d]pyrimidin-2(1H)-one], in test [1], the “Coupled exchange IC50” value was found to be 0.129 µM. Further, the IC50 in test [2] (setting [4]) is 0.344 µM; in test [3] (Homo sapiens, A549, A549 cells), greater than 100 µM.
On the same counts, the results for `C=CC(=O)N1CCN(c2nnc(-c3c(C)cccc3C)c3cc(-c4c(O)cccc4F)c(Cl)cc23)CC1` [Example 10-7, 1-(4-(7-Chloro-4-(2,6-dimethylphenyl)-6-(2-fluoro-6-hydroxyphenyl)-1-phthalazinyl)-1-piperazinyl)-2-propen-1-one] are 0.533 µM, 9.2 µM and greater than 100 µM.
On the same counts, the results for `C=CC(=O)N1CCN(c2snc3c(F)c(-c4cc(O)cc5ccccc45)c(Cl)cc23)[C@H](CC)C1` (racemic) [Example 1-8] are 0.894 µM, 6.07 µM and greater than 100 µM.
For `C=CC(=O)N1CCN(c2nc(=O)n(-c3ccccc3C(C)C)c3nc(-c4c(O)cccc4F)c(Cl)cc23)[C@@H](C)C1` (single isomer, unassigned) [Example 8-6-1], the “Coupled exchange IC50” value in test [1] came to 0.066 µM. In addition, the figures for the IC50 in test [2] (MIA PaCa-2 cells) and in test [3] (A549 cells) were 0.01 µM and greater than 33.3 µM, respectively.
Take `C=CC(=O)N1CC(Nc2snc3c(F)c(-c4cc(O)cc5ccccc45)c(Cl)cc23)C1` [Example 1-20, 1-(3-((5-chloro-7-fluoro-6-(3-hydroxy-1-naphthalenyl)-2,1-benzothiazol-3-yl)amino)-1-azetidinyl)-2-propen-1-one]: the “Coupled exchange IC50” value in test [1] turned out to be 0.683 µM. For the same compound, the IC50 in test [2] (setting [4]) is 4.99 µM; in test [3] (Homo sapiens, A549, A549 cells), greater than 100 µM.
As to `C=CC(=O)N1CCN(c2nc(=O)n(-c3ccncc3C3CC3)c3cc(-c4c(O)cccc4F)c(Cl)cc23)CC1` [Example 9-6, 6-chloro-1-(3-cyclopropyl-4-pyridinyl)-7-(2-fluoro-6-hydroxyphenyl)-4-(4-(2-propenoyl)-1-piperazinyl)-2(1H)-quinazolinone], in test [1], the “Coupled exchange IC50” value came out at 0.237 µM. The IC50 was 3.51 µM in test [2] (setting [4]) and greater than 100 µM in test [3] (Homo sapiens, A549, A549 cells).
For `C=CC(=O)N1CCN(c2snc3c(F)c(-c4cc(N)nc5ccccc45)c(Cl)cc23)CC1` [Example 26, 1-(4-(6-(2-amino-4-quinolinyl)-5-chloro-7-fluoro-2,1-benzothiazol-3-yl)-1-piperazinyl)-2-propen-1-one], the “Coupled exchange IC50” value in test [1] was 3.90 µM. Also, the IC50 is 30.3 µM in test [2] (setting [4]) and greater than 100 µM in test [3] (Homo sapiens, A549, A549 cells).
In the case of `C=CC(=O)N1CCN(c2nc(=O)n(-c3ccncc3C3CC3)c3cc(-c4c(C)ccc5[nH]ncc45)c(Cl)cc23)[C@@H](C)C1` [Example 9-9, 6-chloro-1-(3-cyclopropyl-4-pyridinyl)-7-(5-methyl-1H-indazol-4-yl)-4-((2S)-2-methyl-4-(2-propenoyl)-1-piperazinyl)-2(1H)-quinazolinone], the “Coupled exchange IC50” value in test [1] turned out to be 0.147 µM. For the same compound, the IC50 in test [2] (setting [4]) was found to be 0.136 µM; in test [3] (Homo sapiens, A549, A549 cells), 65.6 µM.
On the same counts, the results for `C=CC(=O)N1CCN(c2snc3c(F)c(-c4c(O)cccc4F)c(Cl)cc23)C(C(F)F)C1` (racemic) [Example 2-9, 1-(4-(5-chloro-7-fluoro-6-(2-fluoro-6-hydroxyphenyl)-2,1-benzothiazol-3-yl)-3-(difluoromethyl)-1-piperazinyl)-2-propen-1-one] are 0.301 µM, 0.747 µM and greater than 100 µM.
